Common to all, as to format: cell-based
The subject of series [1] is MM cell lines (RPMI8226, U266, MM1.S, KMS11). Kind of series: Viability assays, range over the four MM cell lines. As to conditions: read-out: LC50, range over MM cell lines.
For series [2], the system named is RPMI8226. Kind of series: Viability assay by flow cytometry. Particulars: read-out: LC50 (Viability); RPMI8226, 48 hrs.
The subject of series [3] is MM cell lines (RPMI8226, U266, MM1.S, KMS11). Kind of series: Proliferation assays, range over the four MM cell lines. As to conditions: read-out: GI50, range over MM cell lines.
Series [4] deals with MM1.S. Kind of series: Viability assay by flow cytometry. A general note: Flow cytometry measures light scatter and fluorescence of single cells or particles in a stream.
Series [5] has as its system KMS11. Briefly: Viability assay by flow cytometry. As to conditions: read-out: LC50 (Viability); KMS11, 48 hrs.
Series [6] has as its system U266. Briefly: Viability assay by flow cytometry.
The subject of series [7] is PIM2 expression in U266. Kind of series: Western blot of PIM2 protein expression. Particulars: U266, IL-6 25 ng/ml. A general note: A western blot detects proteins with antibodies after separation by electrophoresis.
For series [8], the system named is PIM2 expression in MM1.S. Kind of series: Western blot of PIM2 protein expression. Particulars: IL-6 25 ng/ml.
Where [9] appears, read: Homo sapiens, MM1.S, 48 h, read-out: cell viability.

The record followed here is article PMC5537056 (Leukemia, 2016).

The term GI50 denotes the concentration that inhibits growth by half. By viability is commonly meant a read-out of living cells in per cent, often relative to untreated cells.

Regarding `N[C@@H]1CCCN(c2c(/C=C3\SC(=O)NC3=O)cccc2-c2ccccc2)C1` [AZD1208], the CC50 in series [1] was 23 to 56 µM; in series [2], 30 µM; in series [4] (read-out: LC50 (Viability), MM1S, 48 hrs), 23.7 µM; in series [5], 31.3 µM; in series [6] (read-out: LC50 (Viability), U266, 48 hrs), 56.6 µM. The GI50 in series [3] was in the range of 0.7 to 4.7 µM.
As for `CC(C)C[C@H](NC(=O)[C@H](Cc1ccccc1)NC(=O)c1cnccn1)B(O)O` [bortezomib], the viability at 0.0015 µM in series [4] (setting [9]) turned out to be 18%.
As for `C[C@@H]1C[C@H]2[C@@H]3CCC4=CC(=O)C=C[C@]4(C)[C@@]3(F)[C@@H](O)C[C@]2(C)[C@@]1(O)C(=O)CO` [dexamethasone], in series [4] (setting [9]), the viability at 5 µM is 55%.
Consider `N[C@@H](Cc1ccc(N(CCCl)CCCl)cc1)C(=O)O` [melphalan], for which the viability at 2 µM in series [4] (setting [9]) amounted to 36%. Further, the viability at 4 µM in series [6] (Homo sapiens, U-266, read-out: cell viability) is 58%.
“rIL-6: Recombinant IL-6 purchased from R&D Systems”: the “upregulation of PIM2” value in series [7] came out at 1.3 fold; in series [8], 3.2 fold.
